# Test results taken from article PMC5719086, “Effective in vivo gene delivery with reduced toxicity, achieved by charge and fatty acid -modified cell penetrating peptide” (Scientific Reports, 2017).
# Read-outs that look alike come from different tables or passages of the source. Square brackets hold non-standard residues; d marks the D form. Peptide text beside a SMILES is read from it. * marks the point of attachment. Stearoyl = CCCCCCCCCCCCCCCCCC(=O)*; Orn = NCCC[C@H](N)C(=O)O
# Tests used:
# proteinase K [1] = target: T1, proteinase K (Parengyodontium album, UniProt P06873); assay type: in vitro ADME
# T1 construct: purchased Thermo Scientific
# T1 sequence (P06873 106-384): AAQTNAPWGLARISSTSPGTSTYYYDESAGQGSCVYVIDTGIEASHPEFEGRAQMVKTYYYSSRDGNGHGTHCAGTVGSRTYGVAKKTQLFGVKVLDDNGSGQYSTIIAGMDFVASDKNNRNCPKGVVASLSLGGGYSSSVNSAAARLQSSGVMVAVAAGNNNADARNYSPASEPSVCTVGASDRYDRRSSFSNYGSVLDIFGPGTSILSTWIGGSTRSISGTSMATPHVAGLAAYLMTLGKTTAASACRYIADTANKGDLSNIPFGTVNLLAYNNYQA
# CHO cells = assay: Plasmid delivery (luciferase) assay in cell culture; assay type: cell-based; conditions: 24-well plate
# Experimental: If not indicated otherwise, complexes were formed using 0.5 μg of pDNA (pGL3, Promega, Sweden) mixed with a peptide at indicated charge ratio (N/P, nitrogen-to-phosphate ratio) in MQ water in a final volume of 50 μl. N/P was calculated theoretically and accounted for both the positive charges of the peptide (Table 1) and negative charges of the pDNA. Thereafter, complexes were incubated for 40 minutes at room temperature prior to each experiment.
# For the plasmid delivery assay, 4 × 10^4 CHO cells were seeded 24 hours prior to each experiment in 24-well plates. Cells were treated with CPP/pDNA complexes at indicated N/P for 4 h in serum containing media, followed by the addition of 1 ml 10% serum-containing medium and incubated for another 20 hours. Thereafter, cells were washed with 1x PBS and lysed using 100 µl 0.1% Triton X-100 in PBS for 15 min at 4 °C. Luciferase activity was measured using Promega’s luciferase assay system according to the manufacturer’s protocol using a GLOMAX™ 96 microplate luminometer (Promega, Sweden) and normalized to the protein content (BioRad Protein Assay, USA).
# lungs = conditions: Cy5-labelled pDNA, i.v., 1 h post-injection, confocal microscopy of cryosections
# Experimental: The physical accumulation of the complexes were assessed by using Cy5-labeled pDNA (Mirus, USA). Equal amounts of labelled pDNA were administered, regardless of the N/P ratio of the complexes (e.g. N/P4 included 20 μg of labelled pDNA, whereas in case of N/P2, 20 μg of labelled pDNA was mixed with 30 μg of unlabeled pDNA). For the histological evaluation, the lungs were inflated postmortem with 1:1 cryomatrix:PBS (O.C.T embedding matrix, Kaltek, Italy), frozen in 2-methylbutane bath on dry ice. Fresh cryo-sections (10 μm thick) were fixed with ice cold methanol, counterstained with DAPI (AppliChem) and imaged with confocal microscopy (Zeiss LSM710).
# [2] = Complex stability in FBS, gel shift assay; conditions: 50% FBS, 37 °C, 48 h, serum and/or triton + heparin dissociation
# Experimental: Then the samples were mixed with the DNA loading dye and electrophoresed exactly as stated above in the Gel shift assay description, using 0.1 µg of pDNA per lane. ZipRuler Express DNA Ladder 2 (ThermoFisher Scientific) was added to each gel.
# The stability of the complexes after incubation in FBS, visualized by gel shift assay.
# BALB/c mice = assay: Side effects / lethality after i.v. injection of complexes; assay type: in vivo, mouse; conditions: PF14/pDNA at N/P2, i.v., all experiments
# Experimental: For in vivo studies, 20–50 µg of p-CMV-Luc2 (marked as pLuc in the text) per animal was mixed with a peptide at indicated N/P in MQ in a final volume of 100 µl. After 40 minutes of incubation, glucose was added to a final 5% glucose in 200 μl and immediately injected intravenously via the tail vein.
# Reporter gene expression levels were evaluated post mortem 24 h after injecting the complexes into the tail vein, using male and female BALB/c mice (8-week-old). Each animal received a single 200 μl i.v. injection of the complexes. The mice were sacrificed using cervical dislocation and tissues were harvested and snap-frozen on dry ice. The whole tissues were homogenized using a Precellys®24-Dual homogenization system (Bertin Technologies, France) and lysed using 1 × Promega lysis buffer (Promega, Sweden). The content of luciferase was analyzed as described previously. Briefly, homogenized tissues were thawed and 500 µl of Promega Reporter lysis 1 × buffer was added. The samples were subsequently vortexed for 15 minutes, subjected to three consecutive freeze-thaw cycles (liquid nitrogen and 37 °C water bath), centrifuged for three minutes at 10,000 x g, 4 °C; the supernatant was removed and saved for later analysis. […] Luciferase was measured with Promega luciferase assay system, in combination with GLOMAX 96 microplate luminometer (Promega, Sweden). […]
# proteinase K [3] = target: T1, proteinase K; assay: Proteinase K treatment of CPP/pDNA complexes; assay type: in vitro ADME; conditions: 26 °C
# Experimental: For the proteinase K treatment, 30 μl of pre-formed CPP/pDNA complex solution (0.3, 0.2, 0.1 and 0.05 µg of pDNA per sample) or CPP in MQ was transferred to a black 96-well plate and 90 µl of MQ was added. After a short period of mixing, fluorescent DNA intercalating dye dilution was added (Quant-iT™ PicoGreen®, ThermoFisher Scientific) and incubated for 5 minutes at room temperature. The fluorescence was measured (Synergy MX, BioTek; λex 492 and λem 535) to quantify the initial accessibility of pDNA. Thereafter 10 μl of Proteinase K (Thermo Scientific) was added with the final enzyme concentration ~2.4 U per well. Fluorescence was measured over an indicated period at 26 °C. The readings were normalized against the fluorescence of free pDNA.
# mouse RBC = assay: Hemolysis assay (activity towards cell membranes); assay type: cell-based; conditions: 1 h 37 °C, triplicates
# Experimental: The ability of the peptides to lyse the red blood cells (RBC) in PBS was used as a measure of membrane activity. To obtain fresh mouse RBC, blood was collected from the saphenous vein using sodium-heparinized (80 iu/ml ± 30%) blood collection capillaries (Marienfeld, Germany) and transferred to heparinized blood collecting tubes (Sarstedt, Germany). To isolate RBCs, the whole blood was centrifuged for 15 minutes at 300 × g, followed by removal of the plasma. The RBCs were then washed three times with 1 × PBS (RBC pelleting with 15 minutes at 300 × g). The resulting RBCs were then resuspended in PBS at 4% (v/v).
# For the analysis, 200 μl of RBC suspension was added to 200 μl of peptide solution or peptide/pDNA complexes in 5% glucose (final RBC concentration 2%) and gently vortexed. The peptide/pDNA complexes were prepared using a fixed 1 μg of pDNA and varying amount of the peptide. Following this, samples were incubated for 1 hour at 37 °C with gentle stirring. After incubation, the RBCs were pelleted (15 minutes at 300 × g) and the amount of hemoglobin in the supernatant was assessed by measuring the absorbance at 540 nm using a 96-well microplate reader. The experiments were conducted in triplicates.
# 100% of hemolysis was defined as the RBCs treated with 0.1% Triton-X100 in PBS and 0% was obtained with cells incubated in 5% glucose solution. % of hemolysis was calculated by the formula: % Hemolysis = [(Asample − Aglucose)/Atriton − Aglucose)] × 100.
smiles,measurement,setting,value
CCCCCCCCCCCCCCCCCC(=O)N[C@@H](C)C(=O)NCC(=O)N[C@@H](Cc1ccc(O)cc1)C(=O)N[C@@H](CC(C)C)C(=O)N[C@@H](CC(C)C)C(=O)NCC(=O)N[C@@H](CCCCN)C(=O)N[C@@H](CC(C)C)C(=O)N[C@@H](CC(C)C)C(=O)N[C@@H](CCCN)C(=O)N[C@@H](CCCN)C(=O)N[C@@H](CC(C)C)C(=O)N[C@@H](C)C(=O)N[C@@H](C)C(=O)N[C@@H](C)C(=O)N[C@@H](C)C(=O)N[C@@H](CC(C)C)C(=O)N[C@@H](CCCN)C(=O)N[C@@H](CCCN)C(=O)N[C@@H](CC(C)C)C(=O)N[C@@H](CC(C)C)C(N)=O [PF14] (Stearoyl-AGYLLGKLL[Orn][Orn]LAAAAL[Orn][Orn]LL-NH2),degradation of naked peptide by proteinase K (in words),proteinase K [1],easily degraded
same,"usable pDNA dose before toxicity, N/P2","CHO cells; PF14/pDNA N/P2, CHO cells",up to 2 μg
same,"pDNA dose giving maximum transfection before toxicity, N/P4","CHO cells; PF14/pDNA N/P4, CHO cells",0.5 μg
same,"usable pDNA dose before toxicity, N/P6","CHO cells; PF14/pDNA N/P6, CHO cells",0.125 μg
same,"accumulation of complexes in lungs, N/P2 (in words)",lungs,significantly lower signal
same,"accumulation of complexes in lungs, N/P4 (in words)",lungs,considerable amount of the fluorescence was observed in lungs
same,pDNA migration from complexes after 48 h in serum (in words),[2],migration of pDNA from some of the complexes could be observed
same,"lethality / side effects, N/P2",BALB/c mice,zero lethality
same,stability of the complexes against proteinase K (in words),"proteinase K [3]; CPP/pDNA complexes at N/P2, accessible pDNA over time by intercalating dye",less stable particles where DNA was liberated into the solution
same,Proteinase K: t1/2 (min) of the complexed pDNA (95%CI),"proteinase K [3]; CPP/pDNA complexes at N/P2 in MQ, proteinase K ~2.4 U per well, accessible pDNA by PicoGreen fluorescence, normalized to free pDNA",108.3 (101.9 ± 118.4) min
same,EC50,"mouse RBC; naked peptide in 5% glucose, mouse RBC 2% final in PBS, hemoglobin absorbance 540 nm, 100% = 0.1% Triton X-100, read-out: EC50 (μM) of CPP (membrane activity, concentration required to lyse 50% of the cells)",0.66 µM
same,EC50,"mouse RBC; peptide/pDNA complexes, fixed 1 μg pDNA and varying peptide, mouse RBC 2% final, absorbance 540 nm, read-out: EC50 (μM) of CPP/pDNA (membrane activity)",1.43 µM
